Assay results reported in PubChem BioAssay (NCI).
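Exposure lasted 48 hours, with cells grown in 96-well plates and compounds tested at five concentrations. TGI: total growth inhibition.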

How the values were obtained:
Assay in all cases: growth of human tumour cells (NCI), 48 h
HL-60(TB) leukemia = test system: HL-60(TB) leukemia
OVCAR-4 ovarian = test system: OVCAR-4 ovarian
RPMI-8226 leukemia = test system: RPMI-8226 leukemia
DMS 114 small cell lung = test system: DMS 114 small cell lung
KM20L2 colon = test system: KM20L2 colon
TK-10 renal = test system: TK-10 renal
IGROV1 ovarian = test system: IGROV1 ovarian
HT29 colon = test system: HT29 colon
CAKI-1 renal = test system: CAKI-1 renal
KM12 colon = test system: KM12 colon
ACHN renal = test system: ACHN renal
HOP-92 NSCLC = test system: HOP-92 NSCLC
SNB-19 CNS = test system: SNB-19 CNS
SNB-75 CNS = test system: SNB-75 CNS
RXF-631 renal = test system: RXF-631 renal
786-0 renal = test system: 786-0 renal
UACC-62 melanoma = test system: UACC-62 melanoma
M19-MEL melanoma = test system: M19-MEL melanoma
SF-268 CNS = test system: SF-268 CNS
SF-539 CNS = test system: SF-539 CNS
SK-MEL-2 melanoma = test system: SK-MEL-2 melanoma
SK-OV-3 ovarian = test system: SK-OV-3 ovarian
NCI-H522 lung = test system: NCI-H522 lung
RXF 393 renal = test system: RXF 393 renal
NCI-H23 lung = test system: NCI-H23 lung
HOP-18 NSCLC = test system: HOP-18 NSCLC
UACC-257 melanoma = test system: UACC-257 melanoma
DLD-1 colon = test system: DLD-1 colon
COLO 205 colon = test system: COLO 205 colon
U251 CNS = test system: U251 CNS
M14 melanoma = test system: M14 melanoma
SF-295 CNS = test system: SF-295 CNS
UO-31 renal = test system: UO-31 renal
LXFL 529 NSCLC = test system: LXFL 529 NSCLC
K-562 leukemia = test system: K-562 leukemia
LOX IMVI melanoma = test system: LOX IMVI melanoma
HOP-62 NSCLC = test system: HOP-62 NSCLC
SW-620 colon = test system: SW-620 colon
CCRF-CEM leukemia = test system: CCRF-CEM leukemia
OVCAR-8 ovarian = test system: OVCAR-8 ovarian
A549 NSCLC = test system: A549 NSCLC
OVCAR-5 ovarian = test system: OVCAR-5 ovarian
SNB-78 CNS = test system: SNB-78 CNS
HCT-15 colon = test system: HCT-15 colon
HCT-116 colon = test system: HCT-116 colon
SK-MEL-5 melanoma = test system: SK-MEL-5 melanoma
SN12C renal = test system: SN12C renal
MALME-3M melanoma = test system: MALME-3M melanoma
NCI-H460 lung = test system: NCI-H460 lung
DMS 273 small cell lung = test system: DMS 273 small cell lung
A498 renal = test system: A498 renal
EKVX NSCLC = test system: EKVX NSCLC
HCC-2998 colon = test system: HCC-2998 colon
XF 498 CNS = test system: XF 498 CNS
MOLT-4 leukemia = test system: MOLT-4 leukemia
OVCAR-3 ovarian = test system: OVCAR-3 ovarian
SK-MEL-28 melanoma = test system: SK-MEL-28 melanoma
NCI-H226 lung = test system: NCI-H226 lung

Cc1nc2c(o1)C(=Nc1ccccc1)c1ccccc1C2=Nc1ccccc1
TGI (HL-60(TB) leukemia): > 100 µM
TGI (OVCAR-4 ovarian): > 100 µM
TGI (RPMI-8226 leukemia): > 100 µM
TGI (DMS 114 small cell lung): > 100 µM
TGI (KM20L2 colon): > 100 µM
TGI (TK-10 renal): > 100 µM
TGI (IGROV1 ovarian): > 100 µM
TGI (HT29 colon): > 100 µM
TGI (CAKI-1 renal): > 100 µM
TGI (KM12 colon): > 100 µM
TGI (ACHN renal): > 100 µM
TGI (HOP-92 NSCLC): > 100 µM
TGI (SNB-19 CNS): > 100 µM
TGI (SNB-75 CNS): > 100 µM
TGI (RXF-631 renal): > 100 µM
TGI (786-0 renal): > 100 µM
TGI (UACC-62 melanoma): > 100 µM
TGI (M19-MEL melanoma): > 100 µM
TGI (SF-268 CNS): > 100 µM
TGI (SF-539 CNS): > 100 µM
TGI (SK-MEL-2 melanoma): > 100 µM
TGI (SK-OV-3 ovarian): > 100 µM
TGI (NCI-H522 lung): > 100 µM
TGI (RXF 393 renal): > 100 µM
TGI (NCI-H23 lung): > 100 µM
TGI (HOP-18 NSCLC): > 100 µM
TGI (UACC-257 melanoma): > 100 µM
TGI (DLD-1 colon): > 100 µM
TGI (COLO 205 colon): > 100 µM
TGI (U251 CNS): > 100 µM
TGI (M14 melanoma): > 100 µM
TGI (SF-295 CNS): > 100 µM
TGI (UO-31 renal): > 100 µM
TGI (LXFL 529 NSCLC): > 100 µM
TGI (K-562 leukemia): > 100 µM
TGI (LOX IMVI melanoma): > 100 µM
TGI (HOP-62 NSCLC): > 100 µM
TGI (SW-620 colon): 41.3 µM
TGI (CCRF-CEM leukemia): > 100 µM
TGI (OVCAR-8 ovarian): > 100 µM
TGI (A549 NSCLC): > 100 µM
TGI (OVCAR-5 ovarian): > 100 µM
TGI (SNB-78 CNS): > 100 µM
TGI (HCT-15 colon): 32 µM
TGI (HCT-116 colon): > 100 µM
TGI (SK-MEL-5 melanoma): > 100 µM
TGI (SN12C renal): > 100 µM
TGI (MALME-3M melanoma): > 100 µM
TGI (NCI-H460 lung): > 100 µM
TGI (DMS 273 small cell lung): > 100 µM
TGI (A498 renal): > 100 µM
TGI (EKVX NSCLC): > 100 µM
TGI (HCC-2998 colon): > 100 µM
TGI (XF 498 CNS): > 100 µM
TGI (MOLT-4 leukemia): > 100 µM
TGI (OVCAR-3 ovarian): > 100 µM

Nc1ccc(C(=O)N/C(=C\C=C\c2ccco2)c2nc3c4c(ccc3[nH]2)C(=O)c2ccccc2C4=O)cc1
TGI (OVCAR-4 ovarian): > 100 µM
TGI (RPMI-8226 leukemia): > 100 µM
TGI (DMS 114 small cell lung): > 100 µM
TGI (KM20L2 colon): > 100 µM
TGI (TK-10 renal): 82 µM
TGI (IGROV1 ovarian): > 100 µM
TGI (HT29 colon): > 100 µM
TGI (CAKI-1 renal): > 100 µM
TGI (KM12 colon): > 100 µM
TGI (SK-MEL-28 melanoma): > 100 µM
TGI (ACHN renal): 82 µM
TGI (HOP-92 NSCLC): > 100 µM
TGI (SNB-19 CNS): > 100 µM
TGI (SNB-75 CNS): 62.1 µM
TGI (RXF-631 renal): > 100 µM
TGI (786-0 renal): > 100 µM
TGI (UACC-62 melanoma): > 100 µM
TGI (M19-MEL melanoma): > 100 µM
TGI (SF-268 CNS): > 100 µM
TGI (SF-539 CNS): > 100 µM
TGI (SK-MEL-2 melanoma): 78.6 µM
TGI (SK-OV-3 ovarian): 81.3 µM
TGI (NCI-H522 lung): > 100 µM
TGI (RXF 393 renal): 95 µM
TGI (NCI-H23 lung): > 100 µM
TGI (HOP-18 NSCLC): > 100 µM
TGI (UACC-257 melanoma): > 100 µM
TGI (DLD-1 colon): 58.3 µM
TGI (COLO 205 colon): > 100 µM
TGI (U251 CNS): > 100 µM
TGI (M14 melanoma): > 100 µM
TGI (SF-295 CNS): > 100 µM
TGI (UO-31 renal): 17.9 µM
TGI (LXFL 529 NSCLC): > 100 µM
TGI (K-562 leukemia): > 100 µM
TGI (LOX IMVI melanoma): > 100 µM
TGI (HOP-62 NSCLC): > 100 µM
TGI (SW-620 colon): > 100 µM
TGI (CCRF-CEM leukemia): > 100 µM
TGI (OVCAR-8 ovarian): > 100 µM
TGI (A549 NSCLC): 97 µM
TGI (OVCAR-5 ovarian): > 100 µM
TGI (SNB-78 CNS): > 100 µM
TGI (HCT-15 colon): > 100 µM
TGI (HCT-116 colon): > 100 µM
TGI (SK-MEL-5 melanoma): > 100 µM
TGI (SN12C renal): > 100 µM
TGI (MALME-3M melanoma): > 100 µM
TGI (DMS 273 small cell lung): > 100 µM
TGI (A498 renal): > 100 µM
TGI (EKVX NSCLC): > 100 µM
TGI (HCC-2998 colon): > 100 µM
TGI (XF 498 CNS): > 100 µM
TGI (MOLT-4 leukemia): 55.6 µM
TGI (OVCAR-3 ovarian): > 100 µM

O=C(O)C1CCC(=O)N1C(=O)C(Cl)c1ccccc1 (configuration not stated)
TGI (HL-60(TB) leukemia): > 100 µM
TGI (OVCAR-4 ovarian): > 100 µM
TGI (RPMI-8226 leukemia): > 100 µM
TGI (DMS 114 small cell lung): > 100 µM
TGI (KM20L2 colon): > 100 µM
TGI (TK-10 renal): > 100 µM
TGI (IGROV1 ovarian): > 100 µM
TGI (HT29 colon): > 100 µM
TGI (CAKI-1 renal): > 100 µM
TGI (KM12 colon): > 100 µM
TGI (SK-MEL-28 melanoma): > 100 µM
TGI (NCI-H226 lung): > 100 µM
TGI (ACHN renal): > 100 µM
TGI (HOP-92 NSCLC): > 100 µM
TGI (SNB-19 CNS): > 100 µM
TGI (SNB-75 CNS): > 100 µM
TGI (RXF-631 renal): > 100 µM
TGI (786-0 renal): > 100 µM
TGI (UACC-62 melanoma): > 100 µM
TGI (M19-MEL melanoma): > 100 µM
TGI (SF-268 CNS): > 100 µM
TGI (SK-MEL-2 melanoma): > 100 µM
TGI (SK-OV-3 ovarian): > 100 µM
TGI (NCI-H522 lung): > 100 µM
TGI (NCI-H23 lung): > 100 µM
TGI (HOP-18 NSCLC): > 100 µM
TGI (UACC-257 melanoma): > 100 µM
TGI (DLD-1 colon): > 100 µM
TGI (COLO 205 colon): > 100 µM
TGI (U251 CNS): > 100 µM
TGI (M14 melanoma): > 100 µM
TGI (SF-295 CNS): > 100 µM
TGI (UO-31 renal): > 100 µM
TGI (LXFL 529 NSCLC): > 100 µM
TGI (K-562 leukemia): > 100 µM
TGI (LOX IMVI melanoma): > 100 µM
TGI (HOP-62 NSCLC): > 100 µM
TGI (SW-620 colon): > 100 µM
TGI (CCRF-CEM leukemia): > 100 µM
TGI (OVCAR-8 ovarian): > 100 µM
TGI (A549 NSCLC): > 100 µM
TGI (OVCAR-5 ovarian): > 100 µM
TGI (SNB-78 CNS): > 100 µM
TGI (HCT-15 colon): > 100 µM
TGI (HCT-116 colon): > 100 µM
TGI (SK-MEL-5 melanoma): > 100 µM
TGI (SN12C renal): > 100 µM
TGI (MALME-3M melanoma): > 100 µM
TGI (NCI-H460 lung): > 100 µM
TGI (DMS 273 small cell lung): > 100 µM
TGI (A498 renal): > 100 µM
TGI (EKVX NSCLC): > 100 µM
TGI (HCC-2998 colon): > 100 µM
TGI (XF 498 CNS): > 100 µM
TGI (MOLT-4 leukemia): > 100 µM
TGI (OVCAR-3 ovarian): > 100 µM
